Source: article PMC6117091, “The C. difficile clnRAB operon initiates adaptations to the host environment in response to LL-37” (PLoS Pathogens, 2018)
Values after ≈ are worked out from the molar mass of the structure shown.

What was measured:
C. difficile 630Δerm [1] = test: Minimum inhibitory concentration (MIC); assay type: cell-based, Clostridioides difficile; conditions: Mueller-Hinton Broth, 24 h, 37°C, anaerobic, ~5 x 10^5 CFU/ml
Procedure: (§1) Minimum inhibitory concentrations (MIC) were determined as previously described. […] Briefly, overnight cultures of C. difficile strains were diluted 1:50 in Mueller-Hinton Broth (Difco) and grown to OD600 of 0.45 (~5 x 10^7 CFU/ml). Cultures were then diluted 1:10 in MHB and seeded at a further 1:10 dilution in a round-bottom 96-well plate prepared with serial dilutions of antimicrobials for a starting concentration of ~5 x 10^5 CFU/ml. Plates were incubated for 24 h at 37°C in the anaerobic chamber.

[2] = tested on: C. difficile clnAB mutant (MC935); test: Minimum inhibitory concentration (MIC); assay type: cell-based, Clostridioides difficile; conditions: Mueller-Hinton Broth, 24 h, 37°C, anaerobic, ~5 x 10^5 CFU/ml
Procedure: as §1

[3] = tested on: C. difficile clnR mutant (MC885); test: Minimum inhibitory concentration (MIC); assay type: cell-based, Clostridioides difficile; conditions: Mueller-Hinton Broth, 24 h, 37°C, anaerobic, ~5 x 10^5 CFU/ml
Procedure: as §1

C. difficile 630Δerm [4] = test: Minimum bactericidal concentration (MBC); assay type: cell-based, Clostridioides difficile; conditions: 1:10 dilution into BHIS, 24 h, 37°C, anaerobic
[5] = tested on: C. difficile clnAB mutant (MC935); test: Minimum bactericidal concentration (MBC); assay type: cell-based, Clostridioides difficile; conditions: 1:10 dilution into BHIS, 24 h, 37°C, anaerobic
C. difficile clnR mutant [6] = test: clnR and clnA expression by qRT-PCR in LL-37; assay type: cell-based, Clostridioides difficile; conditions: 2 µg/ml LL-37, BHIS
Procedure: Fig 4 ClnR acts as a conditional repressor and inducer of clnRAB expression. […] RNA samples were collected and processed for qRT-PCR analysis as described in Methods. Graphs show the mean mRNA expression levels of A) clnR and B) clnA relative to expression in strain 630Δerm in BHIS alone. […] Data were analyzed by two-way ANOVA and Tukey’s multiple comparisons test, with comparisons indicated by brackets. * indicates p < 0.05, ** indicates p ≤ 0.0001.

[7] = tested on: TcdA in C. difficile 630Δerm (parent strain); test: TcdA western blot; conditions: 2 μg/ml LL-37, TY medium, 24 h, 37°C; three replicates
[8] = tested on: C. difficile clnR and clnA mutants; test: Growth in BHIS with LL-37; conditions: 2.5 μg/ml LL-37 in BHIS, versus parent strain
C. difficile 630Δerm [9] = test: qRT-PCR of selected RNA-seq transcripts in LL-37; conditions: 2 µg/ml LL-37; normalized to 630∆erm in BHIS; mean ± SEM, n ≥ 3
C. difficile clnR mutant [10] = test: qRT-PCR of selected RNA-seq transcripts in LL-37; conditions: 2 µg/ml LL-37; normalized to 630∆erm in BHIS; mean ± SEM, n ≥ 3
[11] = tested on: C. difficile clnAB mutant; test: qRT-PCR of selected RNA-seq transcripts in LL-37; conditions: 2 µg/ml LL-37; normalized to 630∆erm in BHIS; mean ± SEM, n ≥ 3
[12] = tested on: C. difficile clnR Tn::clnRAB; test: qRT-PCR of selected RNA-seq transcripts in LL-37; conditions: 2 µg/ml LL-37; normalized to 630∆erm in BHIS; mean ± SEM, n ≥ 3
[13] = tested on: C. difficile clnAB Tn::clnRAB; test: qRT-PCR of selected RNA-seq transcripts in LL-37; conditions: 2 µg/ml LL-37; normalized to 630∆erm in BHIS; mean ± SEM, n ≥ 3
[14] = tested on: C. difficile clnR and clnAB mutants; test: Growth in minimal medium with LL-37 (growth curves); conditions: 0.5 μg/ml LL-37; base MM, MM with mannitol, NAG, EA; versus parent strain
[15] = tested on: tcdA, tcdB, sigD, tcdR, ilvC, CD0341 expression in C. difficile 630Δerm; test: Toxin and regulator gene expression by qRT-PCR in LL-37
C. difficile 630Δerm [16] = test: Growth in minimal medium with LL-37, maximum doubling time; conditions: mean ± SD, n ≥ 3
C. difficile clnR mutant [17] = test: as above; conditions: mean ± SD, n ≥ 3
[18] = tested on: C. difficile clnAB mutant; test: as above; conditions: mean ± SD, n ≥ 3
[19] = tested on: C. difficile clnAB Tn::clnRAB; test: as above; conditions: mean ± SD, n ≥ 3
[20] = 2 μg/ml LL-37, BHIS, log phase, wild-type cells, p < 0.05
[21] = 2 µg/ml LL-37, normalized to 630∆erm in BHIS, mean of three replicates ± SEM
[22] = 0.5 µg/ml LL-37, MM + 30 mM NAG, § p < 0.05 vs no LL-37
[23] = 0.5 µg/ml LL-37, MM + 30 mM ethanolamine
[24] = 0.5 µg/ml LL-37, MM + 30 mM fructose
[25] = 0.5 µg/ml LL-37, MM + 30 mM glucose
[26] = 0.5 µg/ml LL-37, MM + 30 mM mannitol
[27] = 0.5 µg/ml LL-37, MM + 30 mM mannose

Compound: CC[C@H](C)[C@H](NC(=O)[C@H](CCCCN)NC(=O)[C@H](CCC(=O)O)NC(=O)[C@H](CCCCN)NC(=O)[C@H](CO)NC(=O)[C@H](CCCCN)NC(=O)[C@H](CCCNC(=N)N)NC(=O)[C@H](Cc1ccccc1)NC(=O)[C@H](Cc1ccccc1)NC(=O)[C@H](CC(=O)O)NC(=O)CNC(=O)[C@H](CC(C)C)NC(=O)[C@@H](N)CC(C)C)C(=O)NCC(=O)N[C@@H](CCCCN)C(=O)N[C@@H](CCC(=O)O)C(=O)N[C@@H](Cc1ccccc1)C(=O)N[C@@H](CCCCN)C(=O)N[C@@H](CCCNC(=N)N)C(=O)N[C@H](C(=O)N[C@H](C(=O)N[C@@H](CCC(N)=O)C(=O)N[C@@H](CCCNC(=N)N)C(=O)N[C@H](C(=O)N[C@@H](CCCCN)C(=O)N[C@@H](CC(=O)O)C(=O)N[C@@H](Cc1ccccc1)C(=O)N[C@@H](CC(C)C)C(=O)N[C@@H](CCCNC(=N)N)C(=O)N[C@@H](CC(N)=O)C(=O)N[C@@H](CC(C)C)C(=O)N[C@H](C(=O)N1CCC[C@H]1C(=O)N[C@@H](CCCNC(=N)N)C(=O)N[C@H](C(=O)N[C@@H](CCC(=O)O)C(=O)N[C@@H](CO)C(=O)O)[C@@H](C)O)C(C)C)[C@@H](C)CC)C(C)C)[C@@H](C)CC [LL-37]
- MIC (C. difficile 630Δerm [1]): 15 µg/mL (≈ 3.34 µM)
- MIC [2]: 15 µg/mL (≈ 3.34 µM)
- MIC [3]: 15 µg/mL (≈ 3.34 µM)
- MBC (C. difficile 630Δerm [4]): 20 µg/mL (≈ 4.45 µM)
- MBC [5]: 20 µg/mL (≈ 4.45 µM)
- clnR and clnA expression (in words) (C. difficile clnR mutant [6]): no longer induced in the clnR mutant
- TcdA levels, fold decrease [7]: about 3 fold
- growth (in words) [8]: grew slightly better than the parent strain
- CD630_02840 relative expression (C. difficile 630Δerm [9]): 29.3 ± 18.8
- grdA (CD630_23520) relative expression (C. difficile 630Δerm [9]): 16.5 ± 10.5
- iorA (CD630_23810) relative expression (C. difficile 630Δerm [9]): 16.8 ± 8.4
- mtlA (CD630_23340) relative expression (C. difficile 630Δerm [9]): 1.0 ± 0.3
- sigU (csfU; CD630_18870) relative expression (C. difficile 630Δerm [9]): 10.5 ± 6.8
- CD630_02840 relative expression (C. difficile clnR mutant [10]): 2.2 ± 0.5
- cstA (CD630_26000) relative expression (C. difficile clnR mutant [10]): 2.3 ± 0.5
- grdA (CD630_23520) relative expression (C. difficile clnR mutant [10]): 1.4 ± 0.1
- mtlA (CD630_23340) relative expression (C. difficile clnR mutant [10]): 1.2 ± 0.7
- sigT (csfT; CD630_06770) relative expression (C. difficile clnR mutant [10]): 2.3 ± 1.1
- sigU (csfU; CD630_18870) relative expression (C. difficile clnR mutant [10]): 2.0 ± 0.6
- vanZ1 (CD630_12400) relative expression (C. difficile clnR mutant [10]): 13.4 ± 5.8
- cstA (CD630_26000) relative expression [11]: 2.9 ± 1.2
- iorA (CD630_23810) relative expression [11]: 20.5 ± 7.3
- mtlA (CD630_23340) relative expression [11]: 5.5 ± 4.3
- sigT (csfT; CD630_06770) relative expression [11]: 1.2 ± 0.1
- sigU (csfU; CD630_18870) relative expression [11]: 3.1 ± 1.4
- vanZ1 (CD630_12400) relative expression [11]: 0.9 ± 0.2
- CD630_02840 relative expression [12]: 602.6 ± 455.6
- cstA (CD630_26000) relative expression [12]: 36.3 ± 21.3
- grdA (CD630_23520) relative expression [12]: 1649.2 ± 814.6
- mtlA (CD630_23340) relative expression [12]: 0.6 ± 0.2
- cstA (CD630_26000) relative expression [13]: 1.3 ± 0.2
- grdA (CD630_23520) relative expression [13]: 1.6 ± 0.2
- mtlA (CD630_23340) relative expression [13]: 0.7 ± 0.4
- sigT (csfT; CD630_06770) relative expression [13]: 1.2 ± 0.2
- sigU (csfU; CD630_18870) relative expression [13]: 0.8 ± 0.1
- vanZ1 (CD630_12400) relative expression [13]: 0.6 ± 0.1
- growth (in words) [14]: grew better than the parent strain
- tcdA expression, fold increase [15, 20]: 4.6 fold
- tcdB expression, fold increase [15, 20]: 2.2 fold
- sigD fold-change in expression in LL-37 [15, 21]: 0.95 ± 0.08
- tcdR fold-change in expression in LL-37 [15, 21]: 1.47 ± 0.44
- ilvC fold-change in expression in LL-37 ([15]; 2 µg/ml LL-37, normalized to 630∆erm in BHIS, mean of three replicates ± SEM, indicates CodY activity): 2.21 ± 0.20
- ilvC expression, fold increase ([15]; LL-37, p < 0.05): 2.2 fold
- Doubling time (C. difficile 630Δerm [16]; [22]): 91.5 ± 5.7 min
- Doubling time (C. difficile 630Δerm [16]; [23]): 90.7 ± 7.9 min
- Doubling time (C. difficile 630Δerm [16]; [24]): 70.2 ± 3.9 min
- Doubling time (C. difficile 630Δerm [16]; [25]): 67.7 ± 4.9 min
- Doubling time (C. difficile 630Δerm [16]; [26]): 69.9 ± 3.4 min
- Doubling time (C. difficile 630Δerm [16]; [27]): 70.3 ± 5.5 min
- Doubling time (C. difficile 630Δerm [16]; 0.5 µg/ml LL-37, base MM): 82.2 ± 5.1 min
- Doubling time (C. difficile clnR mutant [17]; 0.5 µg/ml LL-37, MM + 30 mM NAG): 86.6 ± 2.5 min
- Doubling time (C. difficile clnR mutant [17]; [23]): 84.9 ± 4.6 min
- Doubling time (C. difficile clnR mutant [17]; [24]): 72.4 ± 0.9 min
- Doubling time (C. difficile clnR mutant [17]; [25]): 74.0 ± 1.7 min
- Doubling time (C. difficile clnR mutant [17]; [26]): 67.3 ± 1.5 min
- Doubling time (C. difficile clnR mutant [17]; [27]): 78.4 ± 4.9 min
- Doubling time (C. difficile clnR mutant [17]; 0.5 µg/ml LL-37, base MM): 74.1 ± 4.8 min
- Doubling time [18, 22]: 80.3 ± 1.0 min
- Doubling time [18, 23]: 79.6 ± 9.0 min
- Doubling time [18, 24]: 65.1 ± 2.0 min
- Doubling time [18, 25]: 62.1 ± 2.2 min
- Doubling time [18, 26]: 58.3 ± 5.5 min
- Doubling time [18, 27]: 66.8 ± 4.5 min
- Doubling time ([18]; 0.5 µg/ml LL-37, base MM): 77.1 ± 5.3 min
- Doubling time [19, 22]: 83.6 ± 1.7 min
- Doubling time [19, 23]: 84.0 ± 6.7 min
- Doubling time [19, 24]: 69.8 ± 2.5 min
- Doubling time [19, 25]: 70.8 ± 4.8 min
- Doubling time [19, 26]: 66.4 ± 1.8 min
- Doubling time [19, 27]: 72.6 ± 3.1 min
- Doubling time ([19]; 0.5 µg/ml LL-37, base MM): 76.4 ± 2.6 min
